The text below walks through data of publication PMC4786873, “Spacer-free BODIPY fluorogens in antimicrobial peptides for direct imaging of fungal infection in human tissue” (Nature Communications, 2016).

“Also recorded” adds a separate entry of the source. Where two headings read alike, the source gives them in different places. Starred links: 1 amine or outer side, 2 acyl side, 3 side chain; linkers in the order of their positions; H or OH if unused. Non-standard residues stand in square brackets, D forms with d. Residues, ends and D or L forms follow the SMILES beside them. No end group written: not given here. X1 = CC1=CC(C)=[N+]2C1=C(c1cccc(-c3[nH]c4ccccc4c3C[C@H](N[*:1])C(=O)[*:2])c1)c1c(C)cc(C)n1[B-]2(F)F

Data set [1] concerns Aspergillus fumigatus (strain CEA10). Format: cell-based. The note with it: for activity / affinity in A. fumigatus, in words: values only in Supplementary Fig. 8 (picture not shown), 9 compared with linear PAF26 (4). On the procedure: The A. fumigatus (strain CEA10, source: FGSC A1163) was grown on Vogel's medium at 37 °C for 5 days before the spores (conidia) were harvested. Peptides 4–8 were incubated at different concentrations with A. fumigatus conidia to reach a final volume of 100 μl per well. The final conidia concentration was 5 × 10^5 cells ml^−1 in 10% Vogel's medium. After 24 h incubation at 37 °C in 96 well-plates, fungal growth was determined by measuring OD610nm in a spectrophotometer. IC50 values were determined using four parameter logistic regression. Data is represented as means±s.e.m from at least three independent experiments with n=3.
Antimicrobial and ha emolysis assays.
Supplementary Figure 4. Determination of IC50 values of BODIPY-labelled peptides 5- 8 in A. fumigatus. Cell viability plots and non- linear regressions for peptides 5 (A), 6 (B), 7 (C) and 8 (D).
Peptides were incubated at different concentrations with A. fumigatus conidia to r each a final volum e of 100 μ L per well. T he final conidia concentration was 5 × 10^5 cells/m L in 10% Vogel’s m edium . After 24 h incubation at 37 °C in 96 well-plates, fungal growth was determ ined by m easuring the optical densit y at 610 nm . The IC50 values were determ ined using four param eter logistic regression. Data represented as m eans ± s.e.m (n=3).
(§1) (1 picture or pasted object on this page, not shown here)

For data set [2], the system named is Escherichia coli (ATCC 25922). The data set is described as follows: In vitro antimicrobial activity (bacterial cell viability, OD600). The note with it: 16 h incubation with peptide at its respective IC50 concentration (A. fumigatus), OD600 nm, n=3. Format: cell-based. Here is the method: (§2) P. aeruginosa (ATCC 47085), K. pneumoniae (ATCC BAA1706) and E. coli (ATCC 25922) were grown on Lysogeny Broth (LB) agar plates and stored at 4 °C. For assays, a single colony of bacteria was taken into 10 mL liquid broth and incubated at 37 °C for 16 h. Cultures were centrifuged at 4,000 r.p.m. for 5 min and the pellet was re-suspended in 1 ml of fresh PBS and washed three times. Cultures were reconstituted to 1.0 OD595 nm, then diluted 1:1,000 and incubated with compounds 4–8 at the indicated concentrations (that is, concentrations matching the IC50 values in A. fumigatus for all compounds, except for compounds 3 and 5a where a top concentration of 20 μM was used). Cell viability was monitored over 16 h by measuring OD600 nm in a spectrophotometer. Data is represented as % of cell viability as means from at least two independent experiments with n=3.

The test system of data set [3] is Klebsiella pneumoniae (ATCC BAA1706). Described as above. The note with it: 16 h incubation with peptide at its respective IC50 concentration (A. fumigatus), OD600 nm, n=3. Format: cell-based. Here is the method:
as §2

In data set [4] the test system is Pseudomonas aeruginosa (ATCC 47085). Described as above. The note with it: 16 h incubation with peptide at its respective IC50 concentration (A. fumigatus), OD600 nm, n=3. Format: cell-based. On the procedure: as §2
Data set [5] in a line: Chemical stability in human bronchoalveolar lavages. Format: in vitro ADME. The note with it: human bronchoalveolar lavage from patients with acute respiratory distress syndrome, 37 °C; for remaining at 1 h, 20 μM / remaining at 3 h, 20 μM / remaining at 24 h, 20 μM: HPLC-UV (C18); for remaining at 1 h, 20 μM: read-out: chemical stability in human bronchoalveolar lavage, percentage at 1 h (measure not given); for remaining at 3 h, 20 μM: read-out: chemical stability in human bronchoalveolar lavage, percentage at 3 h (measure not given); for remaining at 24 h, 20 μM: read-out: chemical stability in human bronchoalveolar lavage, percentage at 24 h (measure not given). On the procedure: Peptides 5 and 8 (20 μM) were dissolved in human bronchoalveolar lavage samples (total volume: 100 μl) and incubated at 37 °C for the indicated times. Samples were injected into an high-performance liquid chromatography Agilent 1100 separations module connected to a UV detector with a Discovery C18 column (5 μm, 4.6 × 50 mm). Matrix-assisted laser desorption/ionization data was recorded on a Bruker Ultraflex mass spectrometer using sinapinic acid as the matrix.
Supplementary Figure 9 . Stability of cyclic (8) and linear (5) mono-BODIPY labelled peptid es in human bronchoalveolar lavage samples from p atients w ith acute respiratory distress synd rome.
Pept ides were incubat ed in hum an bronchoalveolar lavage sam ples at 37 °C and anal ysed b y H PLC at the tim e points indicated. Arrows point at the peak s corresponding to the intact linear peptide.
as §1

In data set [6] the test system is human lung A549 epithelial cells. Nature of the data set: MTT cell viability assay. Format: cell-based. The note with it: MTT, 0, 1.25, 2.5, 5 and 10 μM, 4 h at 37 °C, absorbance 570 nm, means ± s.d., n=4. Here is the method:
Cell viability was determ ined with a TACS® MTT Cell Proliferation assa y (Trevigen) according to the m anufacturer’s instructions. Briefly, hum an lung A549 epithelial cells were plated on 96-well plates the day before the experim ent, reaching 90- 95% confluence on the day of the experim ent. T he peptide 8 was added to the cells at different concentrations (0, 1.25, 2.5, 5 and 10 µM) and incubated at 37 °C for 4 h. After 4 h, cells were washed, treated according to the m anufacturer’s instructions and their absorbance values (570 nm) were m easured in a Syner gy HT spectrophotom eter (Biotek ). Cell viabilit y data was norm alised to the proliferation of cells without addition of the peptide 8.
Supplementary Figure 17. Cell proliferation assays. Viabilit y of hum an lung A549 epithelial cells after incubation with different concentrations of the peptide 8 . D ata r epresented as m eans ± s.d. (n=4).
as §1

The next data set concerns human RBCs. The data set is described as follows: Determination of haemolytic activity. Format: cell-based. The note with it: red cells of human, 1 h. Here is the method: Erythrocytes were isolated from freshly drawn, anticoagulated human blood and diluted in PBS (1:5). An amount of 50 μl of erythrocyte suspension was added to 50 μl of compounds 4–8 at the indicated concentrations (that is, concentrations matching the IC50 values in A. fumigatus for all compounds, except for compounds 3 and 5a where a top concentration of 20 μM was used). 0.2% Triton X-100 was used as positive control and PBS as negative control. The plate was incubated at 37 °C for 1 h, each well was diluted with 150 μl of PBS and the plate was centrifuged at 1,200g for 15 min. A total of 100 μl of the supernatant from each well was transferred to a fresh plate, and the absorbance at 350 nm was measured in a microplate reader. Data is represented as % of cell viability as means from three independent experiments with n=3.
Supplementary Figure 6. Haemolytic activity of peptides 4-8 in human red blood cells (RBCs).
Peptides 4-8 and T riton X-100 (0.2% as positive control) were incubated with hum an RBCs at 37 °C and their viabilit y was assessed after 1 h. Data repres ented as m eans ± s.d. (n=3). *** for p < 0.001 was determ ined as a statis tically s ignificant difference between the c ell viabilities in PBS (phosphate buffer saline) and in T riton X-100.
as §1

[7] abbreviates: conidia 5 × 10^5 cells/ml in 10% Vogel's medium, 24 h at 37 °C, OD610 nm, four parameter logistic regression, means±s.e.m., n=3, read-out: IC50 in Aspergillus fumigatus.

Consider `CC1=CC(C)=[N+]2C1=C(c1cccc(-c3[nH]c4ccccc4c3C[C@H](NC(=O)[C@H](C)NC(=O)[C@H](C)NC(=O)[C@H](C)N)C(=O)N[C@@H](Cc3ccccc3)C(=O)N[C@@H](Cc3c[nH]c4ccccc34)C(N)=O)c1)c1c(C)cc(C)n1[B-]2(F)F` [5a] (H-AAA[X1]FW-NH2), for which the “activity / affinity in A. fumigatus, in words” value in data set [1] is on record as “poor activity”.

Consider `CC1=CC(C)=[N+]2C1=C(c1cccc(-c3[nH]c4ccccc4c3C[C@H](NC(=O)[C@H](CCCCN)NC(=O)[C@H](CCCCN)NC(=O)[C@@H](N)CCCNC(=N)N)C(=O)N[C@@H](C)C(=O)N[C@@H](C)C(N)=O)c1)c1c(C)cc(C)n1[B-]2(F)F` [5b] (H-RKK[X1]AA-NH2), for which, in data set [1], the “activity / affinity in A. fumigatus, in words” value is reported as “reduced activity”.

By IC50 is commonly meant the midpoint of a concentration-inhibition curve. The term half-life denotes the time in which the quantity being followed falls by half. The low end stands for fast loss, the high end for slow loss. On to `CC1=CC(C)=[N+]2C1=C(c1cccc(-c3[nH]c4ccccc4c3C[C@H](NC(=O)[C@H](CCCCN)NC(=O)[C@H](CCCCN)NC(=O)[C@@H](N)CCCNC(=N)N)C(=O)N[C@@H](Cc3ccccc3)C(=O)N[C@@H](Cc3c[nH]c4ccccc34)C(N)=O)c1)c1c(C)cc(C)n1[B-]2(F)F` [compound 5] (H-RKK[X1]FW-NH2), for which, in data set [1] (setting [7]), the concentration for half-maximal inhibition (IC50) came to 3600 ± 100 nM. Further, the “cell viability, Escherichia coli” value in data set [2] amounted to 94%. The “cell viability, Klebsiella pneumoniae” value in data set [3] is 87%. Moreover, the “cell viability, Pseudomonas aeruginosa” value in data set [4] is reported as above 99%. For the same compound, in data set [5] (peptide 20 μM), the remaining at 1 h, 20 μM turned out to be 49%; the remaining at 3 h, 20 μM is 2%; the remaining at 24 h, 20 μM was below 1%. This compound returned a half-life at 20 μM in data set [5] (peptide 20 μM, HPLC-UV) below 60 min.

On to `CC1=CC(C)=[N+]2C1=C(c1cccc(-c3[nH]c4ccccc4c3C[C@H](NC(=O)[C@H](Cc3ccccc3)NC(=O)[C@H](Cc3c[nH]c4ccccc34)NC(=O)[C@H](CCCCN)NC(=O)[C@H](CCCCN)NC(=O)[C@@H](N)CCCNC(=N)N)C(N)=O)c1)c1c(C)cc(C)n1[B-]2(F)F` [compound 6] (H-RKKWF[X1]-NH2), for which, in data set [1] (setting [7]), the IC50 worked out at 3000 ± 100 nM. The “cell viability, Escherichia coli” value in data set [2] turned out to be 95%. In addition, the “cell viability, Klebsiella pneumoniae” value in data set [3] is given as 96%. Further, the “cell viability, Pseudomonas aeruginosa” value in data set [4] was above 99%.

As for `CC1=CC(C)=[N+]2C1=C(c1cccc(-c3[nH]c4ccccc4c3C[C@H](NC(=O)[C@H](Cc3ccccc3)NC(=O)[C@H](Cc3c(-c4cccc(C5=C6C(C)=CC(C)=[N+]6[B-](F)(F)n6c(C)cc(C)c65)c4)[nH]c4ccccc34)NC(=O)[C@H](CCCCN)NC(=O)[C@H](CCCCN)NC(=O)[C@@H](N)CCCNC(=N)N)C(N)=O)c1)c1c(C)cc(C)n1[B-]2(F)F` [compound 7], in data set [1] (setting [7]), the IC50 stood at 2500 ± 100 nM. The “cell viability, Escherichia coli” value in data set [2] is reported as 95%. In addition, the “cell viability, Klebsiella pneumoniae” value in data set [3] came out at 93%. Moreover, in data set [4], the “cell viability, Pseudomonas aeruginosa” value is above 99%.

For `CC1=CC(C)=[N+]2C1=C(c1cccc(-c3[nH]c4ccccc4c3C[C@@H]3NC(=O)[C@H](CCCCN)NC(=O)[C@H](CCCCN)NC(=O)[C@H](CCCNC(=N)N)NC(=O)CNC(=O)[C@H](Cc4c[nH]c5ccccc45)NC(=O)[C@H](Cc4ccccc4)NC3=O)c1)c1c(C)cc(C)n1[B-]2(F)F` [compound 8] (cyclo(FWGRKK[X1])), the quantum yield in phospholipid membranes was found to be 30%. Also, the “affinity for fungal cells compared with peptide 5” value in data set [1] (comparison of IC50 values in A. fumigatus) is reported as “around two-fold enhanced affinity”. In data set [1] (setting [7]), the IC50 amounted to 2000 ± 100 nM. In addition, the “cell viability, Escherichia coli” value in data set [2] is 96%. Also, the “cell viability, Klebsiella pneumoniae” value in data set [3] is 94%. In addition, the “cell viability, Pseudomonas aeruginosa” value in data set [4] was above 99%. Also, in data set [5] (after 24 h, 20 μM, HPLC-UV), the “stability in human bronchoalveolar lavages, in words” value is “remained intact”. In addition, in data set [5] (peptide 20 μM), the remaining at 1 h, 20 μM was found to be 99%; the remaining at 3 h, 20 μM was 99%; the remaining at 24 h, 20 μM was found to be 95%. In addition, the “cytotoxicity in human lung A549 epithelial cells, in words” value in data set [6] was “No significant differences; also recorded: no cytotoxicity”.

In turn, “RKKWFW-NH2 [compound 4, reference compound]” displayed an IC50 in data set [1] (strain CEA10, 24 h) of 7900 ± 200 nM. For the same compound, in data set [2], the “cell viability, Escherichia coli” value is reported as above 99%. For the same compound, in data set [3], the “cell viability, Klebsiella pneumoniae” value turned out to be 93%. Besides, in data set [4], the “cell viability, Pseudomonas aeruginosa” value is above 99%. Moreover, the “cell viability, human RBCs (haemolysis)” value in the data set with human RBCs was 99%.
